One assay concerns the target JAK3 (Homo sapiens (Human), UniProt P52333). Kind of assay: JAK Caliper enzyme assay at 1 mM ATP (JAK3). The assay is classed as biochemical. To be noted: recombinant human kinase domain, Caliper mobility shift. Here is the method:
(§1) Compounds of the invention were evaluated by in vitro methods to determine their respective ability to inhibit the JAK kinases (TYK2, JAK1, JAK2, JAK3).
(§2) The human JAK inhibitory activity was determined by using a microfluidic assay to monitor phosphorylation of a synthetic peptide by the recombinant human kinase domain of each of the four members of the JAK family, JAK1, JAK2, JAK3 and TYK2. […] Each assay condition was optimized for enzyme concentration and room temperature incubation time to obtain a conversion rate of 20% to 30% phosphorylated peptide product. Reactions were terminated by the addition of stop buffer containing EDTA. Utilizing the LabChip 3000 mobility shift technology (Caliper Life Science), each assay reaction was sampled to determine the level of phosphorylation. This technology is separation-based, allowing direct detection of fluorescently labeled substrates and products. Separations are controlled by a combination of vacuum pressure and electric field strength optimized for each peptide substrate.
(§3) JAK Caliper Enzyme Assay at 1 mM ATP
(§4) Compounds were added to a 384-well plate. Reaction mixtures contained 10 mM HEPES, pH 7.4, 10 mM MgCl2, 0.01% BSA, 0.0005% Tween 20, 1 mM ATP and 1 μM peptide substrate. […] The assays were initiated by the addition of 20 nM JAK1, 1 nM JAK2, 1 nM JAK or 1 nM TYK2 enzyme and were incubated at room temperature for three hours for JAK1, 60 minutes for JAK2, 75 minutes for JAK3 or 135 minutes for TYK2. Enzyme concentrations and incubation times were optimized for each new enzyme preps and were modified slightly over time to ensure 20% to 30% phosphorylation. The assays were stopped with 15 μL of 180 mM HEPES, pH 7.4, 20 mM EDTA, and 0.2% Coating Reagent 3. The assay plates were placed on a Caliper Life Science LC3000 instrument, and each well was sampled using appropriate separation conditions to measure the unphosphorylated and phosphorylated peptide.
(§5) The data was collected using the HTS Well Analyzer software from Caliper Life Sciences. The data output for data analysis is the percent product converted calculated on peak height (Equation 1). % product converted=100*((product)/(product+substrate)) Equation 1: […]
(§6) The percent effect at each compound concentration was calculated based on the positive and negative control well contained within each assay plate (Equation 2). […] The negative control wells contained DMSO alone (at the same concentration as the compound wells) that was used to set the baseline activity in the assay (i.e., uninhibited JAK1, JAK2, JAK3 or TYK2). % effect=100*((sample well−negative control)/(positive control-negative control)) Equation 2: The percent effect was plotted against the compound concentration compound.

A further assay has as its target JAK2 (Homo sapiens (Human), UniProt O60674). Kind of assay: JAK Caliper enzyme assay at 1 mM ATP (JAK2). The assay is classed as biochemical. To be noted: recombinant human kinase domain, Caliper mobility shift. Here is the method: as §1, §2, §3, §4, §5, §6
Assay [1] relates to IL-12 induced STAT4 phosphorylation (IL-12 signals through TYK2 and JAK2). The experiment in a line: Human Whole Blood IL-12 Induced STAT4 Phosphorylation Assay. The assay is classed as cell-based. Particulars: Lymphocyte, IL-12 5 ng/mL, pSTAT4 in lymphocytes by flow cytometry, read-out: HWB IL-12 IC50. Here is the method: Selected compounds were assessed for their ability to inhibit IL-12 signaling in a human whole blood flow cytometry assay. IL-12 signals through TYK2 and JAK2. Human Whole Blood IL-12 Induced STAT4 Phosphorylation Assay
Test articles were prepared as 30 mM stocks in DMSO. An 11-point 2.5 dilution series was created in DMSO with a top concentration of 10 mM. Further dilution was done by adding 4 μL of the above test article solutions into 96 μL of PBS with a top concentration of 400 μM. […] Blood was warmed to 37° C. prior to use. Human whole blood was aliquoted ([…]) in 96-well, deep-well, V-bottom plates and treated with compounds at 11 different concentrations (0.2% DMSO final) at 37° C. for 60 minutes. This was followed by a challenge with IL-12 ([…]; final, 5 ng/mL) for 15 minutes. Samples were treated with warm 1× Lyse/Fix buffer ([…]) to terminate activation and further incubated at 37° C. for 20 minutes to lyse red blood cells. Plates were centrifuged at 300×g for 5 minutes, supernatant was aspirated, and cells were washed with […] of staining buffer (PBS containing 0.5% fetal bovine serum and 0.01% sodium azide). The washed cell pellets were resuspended with […] of pre-chilled 90% methanol, and incubated at 4° C. for 30 minutes. Plates were centrifuged at 300×g for 5 minutes, supernatant containing 90% methanol was aspirated, and cells were washed with […]/well of staining buffer. Cell pellets were resuspended in staining buffer containing anti-pSTAT4-AlexaFluor647 (1 to 150 dilution, […]), and incubated at room temperature in the dark overnight.
Samples were transferred to 96-well U-bottom plates and flow cytometric analysis was performed on a FACSCalibur or LSRFortessa equipped with a HTS plate loader (BD Biosciences). The lymphocyte population was gated for histogram analysis of pSTAT4. Background fluorescence was defined using unstimulated cells and a gate was placed at the foot of the peak to include ˜0.5% gated population. The histogram statistical analysis was performed using CellQuestO Pro version 5.2.1 (BD Biosciences) or FACSDiva version 6.2 (BD Biosciences) software. Relative fluorescence unit (RFU), which measures the level of phospho STAT4, was calculated by multiplying the percent positive population and its mean fluorescence. Data from 11 compound concentrations (singlicate at each concentration) was normalized as a percentage of control based on the formula: % of Control=100×(A−B)/(C−B) where A is the RFU from wells containing compound and IL-12, B is the RFU from wells without IL-12 and compound (minimum fluorescence) and C is the RFU from wells containing only IL-12 (maximum fluorescence). Inhibition curves and IC50 values were determined using the Prism version 5 software (GraphPad, La Jolla, Calif.).
In general terms: In flow cytometry, cells or beads pass a laser one at a time.

For a further assay, the target named is JAK1 (Homo sapiens (Human), UniProt P23458). The experiment in a line: JAK Caliper enzyme assay at 1 mM ATP (JAK1). To be noted: recombinant human kinase domain, Caliper mobility shift. The assay is classed as biochemical. The method, then:
Compounds of the invention were evaluated by in vitro methods to determine their respective ability to inhibit the JAK kinases (TYK2, JAK1, JAK2, JAK3). The human JAK inhibitory activity was determined by using a microfluidic assay to monitor phosphorylation of a synthetic peptide by the recombinant human kinase domain of each of the four members of the JAK family, JAK1, JAK2, JAK3 and TYK2. […] Reactions were terminated by the addition of stop buffer containing EDTA. Utilizing the LabChip 3000 mobility shift technology (Caliper Life Science), each assay reaction was sampled to determine the level of phosphorylation. This technology is separation-based, allowing direct detection of fluorescently labeled substrates and products. Separations are controlled by a combination of vacuum pressure and electric field strength optimized for each peptide substrate. […] Compounds were added to a 384-well plate. […] Enzyme concentrations and incubation times were optimized for each new enzyme preps and were modified slightly over time to ensure 20% to 30% phosphorylation. […] The assay plates were placed on a Caliper Life Science LC3000 instrument, and each well was sampled using appropriate separation conditions to measure the unphosphorylated and phosphorylated peptide. The data was collected using the HTS Well Analyzer software from Caliper Life Sciences. […] The percent effect at each compound concentration was calculated based on the positive and negative control well contained within each assay plate (Equation 2). […] The percent effect was plotted against the compound concentration compound. […] Where max is the maximum asymptote (complete inhibition), min is the minimum asymptote (no inhibition) and s is the slope factor.

In the next assay the target is TYK2 (Homo sapiens (Human), UniProt P29597). Kind of assay: JAK Caliper enzyme assay at 1 mM ATP (TYK2). Type of assay: biochemical. Particulars: recombinant human kinase domain, Caliper mobility shift. Here is the method:
as §1, §2, §3, §4, §5, §6

Molecules are shown by their SMILES. pIC50: −log10 of the molar value.

Sequence of JAK3 (P52333 822-1111): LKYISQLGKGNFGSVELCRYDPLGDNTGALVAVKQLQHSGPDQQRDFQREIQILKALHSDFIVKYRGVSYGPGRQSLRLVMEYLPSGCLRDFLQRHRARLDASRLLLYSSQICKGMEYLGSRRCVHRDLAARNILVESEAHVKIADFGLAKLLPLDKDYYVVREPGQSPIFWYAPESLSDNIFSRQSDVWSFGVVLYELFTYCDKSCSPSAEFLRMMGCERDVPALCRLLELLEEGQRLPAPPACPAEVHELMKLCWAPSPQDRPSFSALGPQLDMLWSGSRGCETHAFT
Sequence of JAK2 (O60674 849-1124): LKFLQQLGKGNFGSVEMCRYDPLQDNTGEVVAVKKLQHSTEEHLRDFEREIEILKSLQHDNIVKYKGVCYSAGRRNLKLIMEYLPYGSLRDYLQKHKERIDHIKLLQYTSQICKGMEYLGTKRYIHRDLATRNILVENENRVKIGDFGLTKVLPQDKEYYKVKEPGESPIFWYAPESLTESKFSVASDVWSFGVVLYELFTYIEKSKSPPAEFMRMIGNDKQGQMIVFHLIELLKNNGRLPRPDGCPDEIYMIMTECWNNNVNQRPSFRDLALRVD
Sequence of TYK2 (P29597 897-1176): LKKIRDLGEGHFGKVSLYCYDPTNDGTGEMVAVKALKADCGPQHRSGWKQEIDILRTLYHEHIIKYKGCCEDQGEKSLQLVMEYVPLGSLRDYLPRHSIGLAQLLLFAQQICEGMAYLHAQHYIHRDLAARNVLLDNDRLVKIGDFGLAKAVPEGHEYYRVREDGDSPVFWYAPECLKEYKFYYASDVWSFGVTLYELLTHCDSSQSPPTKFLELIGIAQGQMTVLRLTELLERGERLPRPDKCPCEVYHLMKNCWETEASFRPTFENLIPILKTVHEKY
Sequence of JAK1 (P23458 875-1153): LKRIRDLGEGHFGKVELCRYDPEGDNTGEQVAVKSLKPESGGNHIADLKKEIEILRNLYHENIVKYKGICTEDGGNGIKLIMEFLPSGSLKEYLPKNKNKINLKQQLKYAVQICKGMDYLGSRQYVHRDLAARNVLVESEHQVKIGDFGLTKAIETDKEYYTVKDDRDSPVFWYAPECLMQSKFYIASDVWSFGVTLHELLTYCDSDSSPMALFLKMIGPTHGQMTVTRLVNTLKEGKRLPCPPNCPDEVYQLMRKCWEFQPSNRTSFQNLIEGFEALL

On to `N#CC[C@]1(n2cc(-c3nc(-c4cc(CO)on4)cn4nccc34)cn2)C[C@@H](C#N)C1` [Example 1, (1s,3s)-3-(Cyanomethyl)-3-(4-(6-(5-(hydroxymethyl)isoxazol-3-yl)pyrazolo[1,5-a]pyrazin-4-yl)-1H-pyrazol-1-yl)cyclobutane-1-carbonitrile], for which the pIC50 on JAK3 was under 5.01; at JAK2 it was 7.40; in assay [1], 6.79.

Consider `Cn1cc(-c2cn3nccc3c(-c3cnn(C4(CC#N)CN(CC#N)C4)c3)n2)cn1` [Example 7, 2,2′-(3-(4-(6-(1-Methyl-1H-pyrazol-4-yl)pyrazolo[1,5-a]pyrazin-4-yl)-1H-pyrazol-1-yl)azetidine-1,3-diyl)diacetonitrile], for which the pIC50 was 6.60 on JAK1; 5.18 at JAK3; 8.15 on TYK2; 7.43 at JAK2; 7.39 in assay [1].

On to `Cn1cc(-c2cn3nccc3c(-c3cnn([C@]4(CC#N)C[C@H](C#N)C4)c3)n2)cn1` [Example 19, (1s,3s)-3-(Cyanomethyl)-3-(4-(6-(1-methyl-1H-pyrazol-4-yl)pyrazolo[1,5-a]pyrazin-4-yl)-1H-pyrazol-1-yl)cyclobutane-1-carbonitrile], for which the negative logarithm of the IC50 (pIC50) in assay [1] is 7.55.

In the case of `CO[C@H]1C[C@](CC#N)(n2cc(-c3nc(-c4cc(N)[nH]n4)cn4nccc34)cn2)C1` [Example 30, 2-((1r,3s)-1-(4-(6-(3-Amino-1H-pyrazol-5-yl)pyrazolo[1,5-a]pyrazin-4-yl)-1H-pyrazol-1-yl)-3-methoxycyclobutyl)acetonitrile], the pIC50 was 6.76 on JAK1; under 5.00 at JAK3; 8.15 on TYK2; 7.15 at JAK2; 7.34 in assay [1].

`CO[C@H]1C[C@@](CC#N)(n2cc(-c3nc(-c4cc(CO)[nH]n4)cn4nccc34)cn2)C1` [Example 27, 2-((1 s,3r)-1-(4-(6-(5-(Hydroxymethyl)-1H-pyrazol-3-yl)pyrazolo[1,5-a]pyrazin-4-yl)-1H-pyrazol-1-yl)-3-methoxycyclobutyl)acetonitrile]: the negative logarithm of the IC50 (pIC50) at JAK1 is 6.13; on JAK3, under 5.00; at TYK2, 7.62; at JAK2, 6.77; in assay [1], 7.07.

For the compound `CO[C@H]1C[C@@](CC#N)(n2cc(-c3nc(-c4cc(C(N)=O)n[nH]4)cn4nccc34)cn2)C1` [Example 32], the pIC50 at JAK1 is 5.65; on JAK3, under 5.00; at TYK2, 7.77; at JAK2, 6.47; in assay [1], 6.89.

Take `Cc1cnn2cc(-c3cnn(C)c3)nc(-c3cnn([C@]4(CC#N)C[C@@H](C#N)C4)c3)c12` [Example 25, (1r,3r)-3-(Cyanomethyl)-3-(4-(3-methyl-6-(1-methyl-1H-pyrazol-4-yl)pyrazolo[1,5-a]pyrazin-4-yl)-1H-pyrazol-1-yl)cyclobutane-1-carbonitrile]: the pIC50 is 6.50 on JAK1; under 5.00 at JAK3; 7.64 at TYK2; 7.00 on JAK2; 7.23 in assay [1].

Take `Cn1cc(-c2cn3nccc3c(-c3cnn([C@]4(CC#N)C[C@@H](C#N)C4)c3)n2)c(N)n1` [Example 23, (1r,3r)-3-(4-(6-(3-Amino-1-methyl-1H-pyrazol-4-yl)pyrazolo[1,5-a]pyrazin-4-yl)-1H-pyrazol-1-yl)-3-(cyanomethyl)cyclobutane-1-carbonitrile]: the pIC50 on JAK1 was 6.37; at JAK3, 5.03; on TYK2, 8.05; on JAK2 it was 7.59; in assay [1] it was 7.47.

For the compound `Cn1cc(-c2cn3nccc3c(-c3cnn([C@]4(CC#N)C[C@@H](C#N)C4)c3)n2)cn1` [Example 20, (1r,3r)-3-(Cyanomethyl)-3-(4-(6-(1-methyl-1H-pyrazol-4-yl)pyrazolo[1,5-a]pyrazin-4-yl)-1H-pyrazol-1-yl)cyclobutane-1-carbonitrile], in assay [1], the pIC50 is 7.30.

One may read the pIC50 as the negative decadic logarithm of the IC50, by convention in mol/L.

These data come from patent US10144738B2, “Pyrazolo[1,5-A]PYRAZIN-4-YL derivatives” (Pfizer Inc., priority 2016, dated 2018).
